Test results published in article PMC8201324, “Pyrazoles and Pyrazolines as Anti-Inflammatory Agents” (Molecules, 2021).
Entries after “also recorded” stand apart in the source; their conditions may differ.

Tests used:
[1] = test system: adjuvant-induced disease (AID); assay: Adjuvant-induced disease (AID); type: in vivo, Fisher 344 rats; details: AID rats
Procedure: Adjuvant-induced disease (AID) is a good experimental model for rheumatoid arthritis, and is often used in testing agents for anti-inflammatory activity. The compound was administered intraperitoneally on the 1st day, i.e., the day of the administration of Freund’s adjuvant (FA), and once every other day for the following 24 days. Adjuvant arthritis was developed about 14 days post-FA administration. […] The effect of the tested compound on inflammation is shown in Table 7 and the time course of adjuvant arthritis development expressed as arthritic score is shown in Figure 2. In the same experimental model, Indomethacin (IMA) was used as a reference compound.
The animals (Fisher 344 rats), were housed under standard conditions, and received a diet of commercial food pellets and water ad libitum during the maintenance, but were entirely fasted during the experiment period. Both sexes were used, while pregnant females were excluded. Each group was composed of 6–15 animals. Our studies were in accordance with recognized guidelines on animal experimentation (guidelines for the care and use of laboratory animals published by the Greek Government 160/1991, based on EU regulations 86/609). Rats were kept in the Centre of the School of Veterinary Medicine (EL54 BIO42), Aristotle University of Thessaloniki, which is registered by the official state veterinary authorities (presidential degree 56/2013, in harmony with the European Directive 2010/63/EEC). The experimental protocols were approved by the Animal Ethics Committee of the Prefecture of Central Macedonia.
Rats were divided into four groups (five-membered groups of animals were used): groups one, two and three were injected intradermally with 0.1 mL Freund’s adjuvant (FA) into the base of the tails of the animals; group three was the FA control rats; group four was injected with saline, used as an absolute control. Compound 2d (group 1) and indomethacin (group 2) were injected i.p. once every other day for the following 24 days in a dose of 0.00057 mmol/mL/kg body weight (Table 7). Adjuvant arthritis was developed circa 14 days post-FA administration. Arthritic score was measured every 2 days from the commencement (14th day) day. Arthritic score was assessed on the 24th day. For quantification of arthritis (arthritic score); a single point was assigned for each wrist or ankle area and an additional point was given for each involved phalangeal joint, up to a maximum of five points per extremity.
On the 24th day and at least 12 h after the last injection, animals were administered zoxazolamine i.p. […], as an aqueous suspension with a few drops of Tween 80, and the duration of the paralysis were assessed (Table 7) (Figure 2). The experiment was conducted in duplicate.

soybean lipoxygenase = target: T1, soybean lipoxygenase (Glycine max, UniProt P08170); assay: Soybean lipoxygenase inhibition study; type: biochemical
T1 construct: purchased Sigma Chemical, Co
T1 sequence (P08170 1-839): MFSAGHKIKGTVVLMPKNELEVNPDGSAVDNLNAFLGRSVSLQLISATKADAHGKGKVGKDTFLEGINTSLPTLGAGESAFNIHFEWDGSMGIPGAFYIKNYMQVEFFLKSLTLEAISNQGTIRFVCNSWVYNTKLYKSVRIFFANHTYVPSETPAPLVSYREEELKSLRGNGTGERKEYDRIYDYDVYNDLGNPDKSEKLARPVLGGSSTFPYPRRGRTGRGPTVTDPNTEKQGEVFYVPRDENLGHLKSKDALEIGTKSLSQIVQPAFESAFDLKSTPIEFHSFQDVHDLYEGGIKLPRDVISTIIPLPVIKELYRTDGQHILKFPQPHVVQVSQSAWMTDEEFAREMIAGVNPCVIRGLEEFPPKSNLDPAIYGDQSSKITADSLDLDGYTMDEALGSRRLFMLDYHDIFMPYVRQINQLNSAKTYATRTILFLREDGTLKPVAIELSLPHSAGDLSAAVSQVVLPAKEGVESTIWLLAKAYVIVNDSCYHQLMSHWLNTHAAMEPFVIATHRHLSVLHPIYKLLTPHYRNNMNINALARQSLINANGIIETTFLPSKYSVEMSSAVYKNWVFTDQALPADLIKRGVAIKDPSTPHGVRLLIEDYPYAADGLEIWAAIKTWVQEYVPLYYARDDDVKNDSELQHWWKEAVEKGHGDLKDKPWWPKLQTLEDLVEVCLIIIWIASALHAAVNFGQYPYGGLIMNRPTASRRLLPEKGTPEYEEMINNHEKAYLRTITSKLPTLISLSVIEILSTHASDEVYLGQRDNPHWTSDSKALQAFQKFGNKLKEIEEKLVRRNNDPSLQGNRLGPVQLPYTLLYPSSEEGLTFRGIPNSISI

[2] = 0.00057 mmol/mL/kg i.p. every other day for 24 days

Brc1ccc(COc2ccc(C3CC(c4ccccc4)=NN3)cc2)cc1 (stereo not drawn) [Compound 2d, 5-(4-((4-bromobenzyl)oxy)phenyl)-3-phenyl-4,5-dihydro-1H-pyrazole]
Percent change in body weight (g ± SD) [1, 2]: 6 ± 0.3 g
Percent change in liver weight (g ± SD) [1, 2]: 7 ± 0.6 g
Zoxazolamine paralysis (minutes ± SD) ([1]; 24th day, zoxazolamine i.p.): 227 ± 17 min
arthritis development / arthritic score ([1]; i.p. once every other day for 24 days, versus AID rat controls): either did not develop or developed very mild arthritis; also recorded: significantly reduced

CC(=O)n1nc(-c2ccc(Cl)cc2)cc1-c1cccc2ccccc12 [Compound 2g, 1-(3-(4-chlorophenyl)-5-(naphthalen-1-yl)-1H-pyrazol-1-yl)ethan-1-one]
inhibition at 100 µM (soybean lipoxygenase; compound 100 µM, linoleic acid sodium salt 50 µM, read-out: LOX % Inhibition 100 µM, LLA 50 µM): 89.6%
type of LOX inhibition (soybean lipoxygenase; varying sodium linoleate concentration, enzyme and compound kept stable): competitive inhibition
